From patent US20230210770A1, “TOPICAL OPHTHALMOLOGICAL COMPOSITIONS AND METHODS FOR TREATING ABNORMAL ANGIOGENESIS” (ADS THERAPEUTICS LLC, priority 2020, published 2023)
≈ marks a conversion by molar mass, not a printed value. Blank lines part the entries; values can stand above or below the molecule they belong to.

What was measured:
[1] = Regorafenib concentration and degradation in F6H8 suspension by HPLC; assay type: physicochemical
Experimental: The Suspension was homogenized by stirring at room temperature for 15 minutes. […] The observed fluctuation was most likely due to inhomogeneity of the sample after manual shaking of the suspension.
[…] were injected into an Agilent 1100 HPLC system (Agilent, Waldbronn, Germany), and samples were run on a heated (40° C.) Symmetry C18 column (150×4.6 mm-3.5 um particle size, Waters, Eschborn, Germany) applying a flow rate of 1 ml/min. The mobile phase consisted of a mixture of potassium phosphate buffer pH 2.4 (A) and acetonitrile/ethanol (6/4) (B). The following gradient was applied: minute 0: A, 60%/B, 40%: minute 12: A, 20%/B, 80%: minute 16: A, 20%/B, 80%: minute 16.5: A, 60%/B, 40%: minute 20: A, 60%/B, 40%.

[2] = cited from earlier work
[3] = Solubility of nintedanib in various solubilizers; assay type: physicochemical
Experimental: Tare 1.5 mL Eppendorf tube 2. […] Add solubilizer and record weight 4. Add water pH 5 (except F3 & F4) and record weight 5. Beadbeater mix for 120 seconds 6. Place on rotating mixer for overnight at ambient temperature 7. Filter through 0.2 μm SPIN-X centrifuge filter 8. Measure pH of filtrate 9. Assay filtrate using CBT-001 standard solution [table]

[4] = system: rabbit glaucoma filtration surgery model; test: Rabbit glaucoma filtration surgery model; assay type: in vivo, New Zealand White rabbits; conditions: vs vehicle
[5] = Solubility in water (reported); assay type: physicochemical
[6] = Solubility of nintedanib in a representative water-based emulsion system; assay type: physicochemical; conditions: for solubility: water-based emulsion, aqueous with cosolvent or surfactant or cyclodextrin, Nintedanib solubility
[7] = water-based emulsion of castor oil, polysorbate 80 and polyoxyl-35 castor oil

Measured regorafenib concentration, % of theoretical concentration ([1]; 400 mg micronized regorafenib monohydrate suspended in 20 ml F6H8, HPLC): 95.4-99.1%
SMILES: CNC(=O)c1cc(Oc2ccc(NC(=O)Nc3ccc(Cl)c(C(F)(F)F)c3)c(F)c2)ccn1 [Regorafenib, regorafenib]
degradation products in HPLC chromatograms ([1]; 400 mg micronized regorafenib monohydrate suspended in 20 ml F6H8): No unidentified degradation product was observed

SMILES: CNC(=O)c1ccccc1Sc1ccc2c(/C=C/c3ccccn3)n[nH]c2c1 [Axitinib, axitinib]
solubility in water ([2]; water at neutral pH): 200 µg/mL (≈ 0.517 mM)

Nintedanib solubility ([3]; solubilizer BZA, filtrate pH 5.6): 0.01 mg/g | Nintedanib solubility ([3]; solubilizer BZK, filtrate pH 5.6): 0.20 mg/g | Nintedanib solubility ([3]; solubilizer Castor oil): 0.37 mg/g | Nintedanib solubility ([3]; solubilizer EtOH, filtrate pH 6.1): 0.01 mg/g | Nintedanib solubility ([3]; solubilizer Mineral oil): 0.00 mg/g | Nintedanib solubility ([3]; solubilizer PEG 400, filtrate pH 5.6): 0.17 mg/g | Nintedanib solubility ([3]; solubilizer PEG 8000, filtrate pH 6.0): 0.01 mg/g | Nintedanib solubility ([3]; solubilizer PG, filtrate pH 6.0): 0.01 mg/g | Nintedanib solubility ([3]; solubilizer PLXMR 188, filtrate pH 6.5): 0.01 mg/g | Nintedanib solubility ([3]; solubilizer PLXMR 407, filtrate pH 6.3): 0.01 mg/g | Nintedanib solubility ([3]; solubilizer polysorbate 20, filtrate pH 6.6): 0.06 mg/g | Nintedanib solubility ([3]; solubilizer polysorbate 80, filtrate pH 6.7): 0.25 mg/g | reported solubility in water, as percent [5]: < 0.001% | nintedanib dissolved by the emulsion system [6, 7]: 3 to 5 mg/mL | ophthalmic emulsion concentration of nintedanib [6, 7]: 0.3%-0.5 | solubility ([6]; emulsion F70 lot 1: castor oil 1, polysorbate 80 1, polyoxyl-35 castor oil 2, water 95): 5000 µg/mL (≈ 9.27 mM) | solubility ([6]; emulsion F70 lot 2: castor oil 1, polysorbate 80 1, polyoxyl-35 castor oil 2, water 95): 3400 µg/mL (≈ 6.3 mM)
SMILES: COC(=O)c1ccc2c(c1)NC(=O)/C2=C(\Nc1ccc(N(C)C(=O)CN2CCN(C)CC2)cc1)c1ccccc1 [Nintedanib, nintedanib]
reported solubility in water ([2]; water): less than 0.01 mg/mL | fibroblast density ([4]; group 3: 0.3% emulsion BID minus Day 7-Day 30, rabbit): trend of reduction not statistically significant | fibroblast density ([4]; group 4: 0.3% emulsion BID Day 1-Day 30, rabbit): significant reduction
